Reference: PubChem BioAssay AID2060485 (Molecular Pharmacology Branch, DTP, NCI, 2025)

System: A375 multi-cell spheroids with HUVEC/MSC, viability
Test: Anticancer human tumor A375 cell line growth inhibition [GQUAD];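 also: spheroids exposed to compounds for seven days before readout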
Conditions: for IC50: curve of first compound; for viability, T/C: stronger effect = lower value
Outline: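 Tumor cells were grown as complex spheroids with HUVEC endothelial cells and mesenchymal stem cells as stroma. G-quadruplex stabilizers were combined with targeted agents over half-log dilutions from near the clinical Cmax, or from 10 microM.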

[1] = second compound 0.0316 µM, first compound 0.0316 µM
[2] = second compound 0.0316 µM, first compound 0.1 µM
[3] = second compound 0.0316 µM, first compound 0.316 µM
[4] = second compound 0.0316 µM, first compound 1 µM
[5] = second compound 0.0316 µM, first compound 3.16 µM
[6] = second compound 0.0316 µM, first compound 10 µM
[7] = second compound 0.1 µM, first compound 0.0316 µM
[8] = second compound 0.1 µM, first compound 0.1 µM
[9] = second compound 0.1 µM, first compound 0.316 µM
[10] = second compound 0.1 µM, first compound 1 µM
[11] = second compound 0.1 µM, first compound 3.16 µM
[12] = second compound 0.1 µM, first compound 10 µM
[13] = second compound 0.316 µM, first compound 0.0316 µM
[14] = second compound 0.316 µM, first compound 0.1 µM
[15] = second compound 0.316 µM, first compound 0.316 µM
[16] = second compound 0.316 µM, first compound 1 µM
[17] = second compound 0.316 µM, first compound 3.16 µM
[18] = second compound 0.316 µM, first compound 10 µM
[19] = second compound 1 µM, first compound 0.0316 µM
[20] = second compound 1 µM, first compound 0.1 µM
[21] = second compound 1 µM, first compound 0.316 µM
[22] = second compound 1 µM, first compound 1 µM
[23] = second compound 1 µM, first compound 3.16 µM
[24] = second compound 1 µM, first compound 10 µM
[25] = second compound 3.16 µM, first compound 0.0316 µM
[26] = second compound 3.16 µM, first compound 0.1 µM
[27] = second compound 3.16 µM, first compound 0.316 µM
[28] = second compound 3.16 µM, first compound 1 µM
[29] = second compound 3.16 µM, first compound 3.16 µM
[30] = second compound 3.16 µM, first compound 10 µM
[31] = second compound 10 µM, first compound 0.0316 µM
[32] = second compound 10 µM, first compound 0.1 µM
[33] = second compound 10 µM, first compound 0.316 µM
[34] = second compound 10 µM, first compound 1 µM
[35] = second compound 10 µM, first compound 3.16 µM
[36] = second compound 10 µM, first compound 10 µM

Question: For `C#Cc1c(F)ccc2cc(O)cc(-c3ncc4c(N5CC6CCC(C5)N6)nc(OCC56CCCN5CC(F)C6)nc4c3F)c12` (stereo unspecified) + Cc1[nH]c2ccc(F)cc2c1-c1nc2c3cccnc3c3ncccc3c2[nH]1, which IC50 (second compound 0.0316 µM) is on record?
Answer: > 10000 nM

Question: And the IC50 (second compound 0.1 µM)?
Answer: > 10000 nM

Question: What about the IC50 (second compound 0.316 µM) of the same compound?
Answer: > 10000 nM

Question: And the IC50 (second compound 1 µM)?
Answer: > 10000 nM

Question: What about the IC50 (second compound 3.16 µM) of the same compound?
Answer: 5370 nM

Question: What about the IC50 (second compound 10 µM) of the same compound?
Answer: > 10000 nM

Question: What about the viability, T/C [1] of the same compound?
Answer: 102%

Question: And the viability, T/C [2]?
Answer: 99.5%

Question: And the viability, T/C [3]?
Answer: 97.1%

Question: And the viability, T/C [4]?
Answer: 107%

Question: And the viability, T/C [5]?
Answer: 97.2%

Question: And the viability, T/C [6]?
Answer: 97.1%

Question: And the viability, T/C [7]?
Answer: 104%

Question: What about the viability, T/C [8] of the same compound?
Answer: 104%

Question: What about the viability, T/C [9] of the same compound?
Answer: 99.4%

Question: What about the viability, T/C [10] of the same compound?
Answer: 102%

Question: And the viability, T/C [11]?
Answer: 101%

Question: And the viability, T/C [12]?
Answer: 102%

Question: What about the viability, T/C [13] of the same compound?
Answer: 105%

Question: What about the viability, T/C [14] of the same compound?
Answer: 104%

Question: And the viability, T/C [15]?
Answer: 96.7%

Question: And the viability, T/C [16]?
Answer: 101%

Question: And the viability, T/C [17]?
Answer: 101%

Question: What about the viability, T/C [18] of the same compound?
Answer: 101%

Question: And the viability, T/C [19]?
Answer: 113%

Question: And the viability, T/C [20]?
Answer: 104%

Question: What about the viability, T/C [21] of the same compound?
Answer: 94.2%

Question: What about the viability, T/C [22] of the same compound?
Answer: 97.2%

Question: What about the viability, T/C [23] of the same compound?
Answer: 105%

Question: What about the viability, T/C [24] of the same compound?
Answer: 103%

Question: What about the viability, T/C [25] of the same compound?
Answer: 81.8%

Question: What about the viability, T/C [26] of the same compound?
Answer: 71.6%

Question: And the viability, T/C [27]?
Answer: 74.2%

Question: And the viability, T/C [28]?
Answer: 84.7%

Question: What about the viability, T/C [29] of the same compound?
Answer: 62.3%

Question: And the viability, T/C [30]?
Answer: 35.6%

Question: What about the viability, T/C [31] of the same compound?
Answer: 86.5%

Question: What about the viability, T/C [32] of the same compound?
Answer: 86.9%

Question: What about the viability, T/C [33] of the same compound?
Answer: 94.4%

Question: And the viability, T/C [34]?
Answer: 79.8%

Question: And the viability, T/C [35]?
Answer: 78%

Question: What about the viability, T/C [36] of the same compound?
Answer: 61.8%

Question: `CC(=O)O[C@H]1C(=O)[C@@]2(C)[C@H]([C@H](OC(=O)c3ccccc3)[C@]3(O)C[C@H](OC(=O)[C@H](O)[C@@H](NC(=O)c4ccccc4)c4ccccc4)C(C)=C1C3(C)C)[C@]1(OC(C)=O)CO[C@@H]1C[C@@H]2O` + Cc1[nH]c2ccc(F)cc2c1-c1nc2c3cccnc3c3ncccc3c2[nH]1 was tested. Which IC50 (second compound 0.0316 µM) did it give?
Answer: 46.8 nM

Question: What about the IC50 (second compound 0.1 µM) of the same compound?
Answer: 52.3 nM

Question: And the IC50 (second compound 0.316 µM)?
Answer: 52.5 nM

Question: What about the IC50 (second compound 1 µM) of the same compound?
Answer: 50.9 nM

Question: And the IC50 (second compound 3.16 µM)?
Answer: < 31.6 nM

Question: And the IC50 (second compound 10 µM)?
Answer: < 31.6 nM

Question: And the viability, T/C [1]?
Answer: 67.1%

Question: What about the viability, T/C [2] of the same compound?
Answer: 16.8%

Question: What about the viability, T/C [3] of the same compound?
Answer: 9.66%

Question: And the viability, T/C [4]?
Answer: 8.81%

Question: And the viability, T/C [5]?
Answer: 9.39%

Question: What about the viability, T/C [6] of the same compound?
Answer: 10.1%

Question: What about the viability, T/C [7] of the same compound?
Answer: 73.9%

Question: And the viability, T/C [8]?
Answer: 19.3%

Question: What about the viability, T/C [9] of the same compound?
Answer: 10.3%

Question: And the viability, T/C [10]?
Answer: 11.5%

Question: What about the viability, T/C [11] of the same compound?
Answer: 7.58%

Question: What about the viability, T/C [12] of the same compound?
Answer: 12.6%

Question: And the viability, T/C [13]?
Answer: 72.2%

Question: And the viability, T/C [14]?
Answer: 21.9%

Question: And the viability, T/C [15]?
Answer: 11.6%

Question: And the viability, T/C [16]?
Answer: 11.8%

Question: And the viability, T/C [17]?
Answer: 10.5%

Question: And the viability, T/C [18]?
Answer: 13.2%

Question: What about the viability, T/C [19] of the same compound?
Answer: 68.5%

Question: And the viability, T/C [20]?
Answer: 23.8%

Question: What about the viability, T/C [21] of the same compound?
Answer: 14.5%

Question: What about the viability, T/C [22] of the same compound?
Answer: 13.7%

Question: What about the viability, T/C [23] of the same compound?
Answer: 13.9%

Question: What about the viability, T/C [24] of the same compound?
Answer: 17.3%

Question: What about the viability, T/C [25] of the same compound?
Answer: 25.6%

Question: And the viability, T/C [26]?
Answer: 16%

Question: And the viability, T/C [27]?
Answer: 15%

Question: And the viability, T/C [28]?
Answer: 19.8%

Question: What about the viability, T/C [29] of the same compound?
Answer: 14.5%

Question: What about the viability, T/C [30] of the same compound?
Answer: 12.9%

Question: What about the viability, T/C [31] of the same compound?
Answer: 33.6%

Question: What about the viability, T/C [32] of the same compound?
Answer: 22.9%

Question: What about the viability, T/C [33] of the same compound?
Answer: 18.8%

Question: What about the viability, T/C [34] of the same compound?
Answer: 18.8%

Question: And the viability, T/C [35]?
Answer: 17.9%

Question: What about the viability, T/C [36] of the same compound?
Answer: 18.8%

Question: How did the IC50 (second compound 0.0316 µM) turn out when `CCCS(=O)(=O)Nc1ccc(F)c(C(=O)c2c[nH]c3ncc(-c4ccc(Cl)cc4)cc23)c1F` + Cc1[nH]c2ccc(F)cc2c1-c1nc2c3cccnc3c3ncccc3c2[nH]1 was run?
Answer: < 31.6 nM

Question: What about the IC50 (second compound 0.1 µM) of the same compound?
Answer: < 31.6 nM

Question: What about the IC50 (second compound 0.316 µM) of the same compound?
Answer: < 31.6 nM

Question: What about the IC50 (second compound 1 µM) of the same compound?
Answer: < 31.6 nM

Question: What about the IC50 (second compound 3.16 µM) of the same compound?
Answer: < 31.6 nM

Question: What about the IC50 (second compound 10 µM) of the same compound?
Answer: < 31.6 nM

Question: And the viability, T/C [1]?
Answer: 47.1%

Question: And the viability, T/C [2]?
Answer: 14.9%

Question: What about the viability, T/C [3] of the same compound?
Answer: 7.54%

Question: And the viability, T/C [4]?
Answer: 5.63%

Question: What about the viability, T/C [5] of the same compound?
Answer: 6%

Question: And the viability, T/C [6]?
Answer: 6.44%

Question: And the viability, T/C [7]?
Answer: 40.4%

Question: What about the viability, T/C [8] of the same compound?
Answer: 15.4%

Question: What about the viability, T/C [9] of the same compound?
Answer: 8.57%

Question: What about the viability, T/C [10] of the same compound?
Answer: 6.32%

Question: And the viability, T/C [11]?
Answer: 5.78%

Question: What about the viability, T/C [12] of the same compound?
Answer: 5.39%

Question: And the viability, T/C [13]?
Answer: 43.6%

Question: And the viability, T/C [14]?
Answer: 13.7%

Question: What about the viability, T/C [15] of the same compound?
Answer: 8.7%

Question: What about the viability, T/C [16] of the same compound?
Answer: 6.15%

Question: And the viability, T/C [17]?
Answer: 5.37%

Question: What about the viability, T/C [18] of the same compound?
Answer: 4.44%

Question: What about the viability, T/C [19] of the same compound?
Answer: 32%

Question: And the viability, T/C [20]?
Answer: 14.6%

Question: What about the viability, T/C [21] of the same compound?
Answer: 7.98%

Question: And the viability, T/C [22]?
Answer: 5.57%

Question: What about the viability, T/C [23] of the same compound?
Answer: 5%

Question: What about the viability, T/C [24] of the same compound?
Answer: 1.74%

Question: What about the viability, T/C [25] of the same compound?
Answer: 24.6%

Question: What about the viability, T/C [26] of the same compound?
Answer: 10%

Question: And the viability, T/C [27]?
Answer: 6.35%

Question: And the viability, T/C [28]?
Answer: 3.57%

Question: What about the viability, T/C [29] of the same compound?
Answer: 1.79%

Question: What about the viability, T/C [30] of the same compound?
Answer: 0.23%

Question: And the viability, T/C [31]?
Answer: 30.4%

Question: And the viability, T/C [32]?
Answer: 13.4%

Question: What about the viability, T/C [33] of the same compound?
Answer: 7.1%

Question: What about the viability, T/C [34] of the same compound?
Answer: 4.44%

Question: What about the viability, T/C [35] of the same compound?
Answer: 3.27%

Question: What about the viability, T/C [36] of the same compound?
Answer: 0.2%
